In publication PMC3433420 (PLoS ONE, 2012):
Residues, ends and D or L forms follow the SMILES beside them.

Key:
Test in all cases: In-house protein microarrays (with or without 5 mM DTT), protein named per line
Assay type in all cases: binding
SH2 and PTB domains [1] = target: T1, SH2 and PTB domains (Homo sapiens, UniProt P51451); settings: protein BLK
T1 construct: thioredoxin; made in house; host or cells: BL21(DE3)pLysS E. coli
How it was run: (§1)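 KD values come from rhodamine fluorescence of duplicate spots after subtraction of a thioredoxin control. Domains were printed at ~40 µM on aldehyde slides, blocked 1 h at room temperature in pH 7.8 HEPES/KCl buffer with 5 mM DTT and 1% BSA, then peptide-probed.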

SH2 and PTB domains [2] = target: T2, SH2 and PTB domains (Homo sapiens, UniProt Q92569); settings: protein PIK3R3-NC
T2 construct: thioredoxin; made in house; host or cells: BL21(DE3)pLysS E. coli
How it was run: as §1

SH2 and PTB domains [3] = target: T3, SH2 and PTB domains (Homo sapiens, UniProt O60880); settings: protein SH2D1A; PM assay replicate # 39307; array fabrication # 39286
T3 construct: thioredoxin; made in house; host or cells: BL21(DE3)pLysS E. coli
T3 sequence (O60880 1-128): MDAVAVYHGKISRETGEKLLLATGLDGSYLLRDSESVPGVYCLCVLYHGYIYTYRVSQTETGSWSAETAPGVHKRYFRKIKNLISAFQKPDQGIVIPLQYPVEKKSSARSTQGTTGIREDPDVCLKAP
How it was run: as §1

SH2 and PTB domains [4] = target: T4, SH2 and PTB domains (Homo sapiens, UniProt P16885); settings: protein PLCG2-NC
T4 construct: thioredoxin; made in house; host or cells: BL21(DE3)pLysS E. coli
T4 sequence (P16885 1-1265): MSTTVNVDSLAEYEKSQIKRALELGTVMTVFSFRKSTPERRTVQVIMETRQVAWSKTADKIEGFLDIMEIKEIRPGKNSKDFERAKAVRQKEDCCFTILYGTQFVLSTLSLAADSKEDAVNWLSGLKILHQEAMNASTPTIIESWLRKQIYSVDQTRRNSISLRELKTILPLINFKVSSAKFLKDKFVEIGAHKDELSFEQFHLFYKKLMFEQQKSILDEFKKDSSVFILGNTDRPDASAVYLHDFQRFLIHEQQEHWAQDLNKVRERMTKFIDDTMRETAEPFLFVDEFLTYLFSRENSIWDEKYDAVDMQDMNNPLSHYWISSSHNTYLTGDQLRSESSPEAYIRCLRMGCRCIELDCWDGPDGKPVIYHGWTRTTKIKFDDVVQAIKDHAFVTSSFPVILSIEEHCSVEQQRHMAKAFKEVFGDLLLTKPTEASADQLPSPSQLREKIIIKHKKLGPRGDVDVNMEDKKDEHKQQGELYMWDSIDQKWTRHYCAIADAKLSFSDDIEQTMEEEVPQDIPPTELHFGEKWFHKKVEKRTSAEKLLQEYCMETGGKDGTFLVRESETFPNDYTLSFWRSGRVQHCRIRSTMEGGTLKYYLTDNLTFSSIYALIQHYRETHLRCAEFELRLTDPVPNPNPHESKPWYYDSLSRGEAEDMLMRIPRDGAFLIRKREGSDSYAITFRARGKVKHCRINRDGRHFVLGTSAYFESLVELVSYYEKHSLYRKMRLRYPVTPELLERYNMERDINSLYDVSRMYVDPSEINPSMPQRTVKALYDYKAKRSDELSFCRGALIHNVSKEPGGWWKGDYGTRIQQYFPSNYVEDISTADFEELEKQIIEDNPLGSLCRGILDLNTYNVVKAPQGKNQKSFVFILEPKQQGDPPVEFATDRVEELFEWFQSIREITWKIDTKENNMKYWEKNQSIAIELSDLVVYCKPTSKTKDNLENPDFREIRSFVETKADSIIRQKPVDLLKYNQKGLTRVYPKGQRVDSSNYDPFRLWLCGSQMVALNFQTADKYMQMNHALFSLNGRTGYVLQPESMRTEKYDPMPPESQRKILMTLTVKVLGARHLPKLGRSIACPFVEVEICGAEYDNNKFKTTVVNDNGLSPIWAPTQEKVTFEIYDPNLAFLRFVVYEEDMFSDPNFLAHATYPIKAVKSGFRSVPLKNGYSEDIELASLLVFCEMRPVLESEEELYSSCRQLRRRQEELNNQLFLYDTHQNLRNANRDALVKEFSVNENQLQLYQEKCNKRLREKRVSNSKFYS
How it was run: as §1

SH2 and PTB domains [5] = target: T5, SH2 and PTB domains (Homo sapiens, UniProt O43639); settings: protein NCK2; PM assay replicate # 39307; array fabrication # 39286
T5 construct: thioredoxin; made in house; host or cells: BL21(DE3)pLysS E. coli
T5 sequence (O43639 whole entry, the tested form may be a part): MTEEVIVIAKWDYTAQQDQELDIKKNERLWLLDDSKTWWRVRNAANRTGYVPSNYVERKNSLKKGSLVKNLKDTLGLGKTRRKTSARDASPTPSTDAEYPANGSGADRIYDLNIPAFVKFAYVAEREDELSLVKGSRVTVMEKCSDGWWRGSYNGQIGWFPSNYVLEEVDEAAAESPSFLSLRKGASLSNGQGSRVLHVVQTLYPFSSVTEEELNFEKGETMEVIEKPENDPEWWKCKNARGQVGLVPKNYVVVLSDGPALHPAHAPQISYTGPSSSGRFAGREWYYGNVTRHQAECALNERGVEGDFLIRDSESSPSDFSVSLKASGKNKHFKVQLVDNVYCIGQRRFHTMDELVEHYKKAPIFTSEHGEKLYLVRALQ
How it was run: as §1

[6] = PM assay replicate # 39307, array fabrication # 39286
[7] = PM assay replicate # 39337, array fabrication # 39329
[8] = PM assay replicate # 39351, array fabrication # 39336
[9] = PM assay replicate # 39352, array fabrication # 39336

T1 sequence (P51451 whole entry, the tested form may be a part): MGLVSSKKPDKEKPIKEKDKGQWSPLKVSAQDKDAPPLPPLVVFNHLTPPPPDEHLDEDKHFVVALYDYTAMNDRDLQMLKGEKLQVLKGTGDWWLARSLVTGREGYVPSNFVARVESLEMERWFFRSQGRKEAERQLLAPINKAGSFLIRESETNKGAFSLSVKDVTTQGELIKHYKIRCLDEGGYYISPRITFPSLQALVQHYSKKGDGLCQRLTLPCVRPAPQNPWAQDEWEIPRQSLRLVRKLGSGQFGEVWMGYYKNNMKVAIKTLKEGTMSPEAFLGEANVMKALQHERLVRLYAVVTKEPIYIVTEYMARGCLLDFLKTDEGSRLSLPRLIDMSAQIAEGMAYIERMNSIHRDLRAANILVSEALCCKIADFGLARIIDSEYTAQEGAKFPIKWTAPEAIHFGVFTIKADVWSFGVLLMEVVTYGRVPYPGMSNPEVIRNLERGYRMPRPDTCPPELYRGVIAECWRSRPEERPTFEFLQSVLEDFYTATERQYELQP

| Compound | Kd (SH2 and PTB domains [1]; [6]) | Kd (SH2 and PTB domains [1]; [7]) | Kd (SH2 and PTB domains [1]; [8]) | Kd (SH2 and PTB domains [1]; [9]) | Kd (SH2 and PTB domains [2]; [7]) | Kd (SH2 and PTB domains [2]; [9]) | Kd (SH2 and PTB domains [3]) | Kd (SH2 and PTB domains [4]; [7]) | Kd (SH2 and PTB domains [4]; [8]) | Kd (SH2 and PTB domains [4]; [9]) | Kd (SH2 and PTB domains [5]) | Kd (SH2 and PTB domains [2]; [6]) | Kd (SH2 and PTB domains [4]; [6]) |
| --- | --- | --- | --- | --- | --- | --- | --- | --- | --- | --- | --- | --- | --- |
| CCN(CC)c1ccc2c(-c3ccc(C(=O)N[C@@H](CC(N)=O)C(=O)NCC(=O)N4CCC[C@H]4C(=O)N4CCC[C@H]4C(=O)N[C@@H](CCCCN)C(=O)N[C@@H](C)C(=O)N[C@@H](CCC(=O)O)C(=O)N[C@@H](CC(=O)O)C(=O)N[C@@H](CCC(=O)O)C(=O)N[C@@H](Cc4ccc(OP(=O)(O)O)cc4)C(=O)N[C@H](C(=O)N[C@@H](CC(N)=O)C(=O)N[C@@H](CCC(=O)O)C(=O)N4CCC[C@H]4C(=O)N[C@@H](CC(C)C)C(=O)N[C@@H](Cc4ccc(O)cc4)C(=O)N[C@@H](CC(C)C)C(=O)N[C@@H](CC(=O)O)C(=O)O)C(C)C)cc3C(=O)[O-])c3ccc(=[N+](CC)CC)cc-3oc2c1 [ErbB4 1202 (18-mer)] (HELM PEPTIDE1{[CCN(CC)c1ccc2c(-c3ccc(C(=O)[*:2])cc3C(=O)[O-])c3ccc(=[N+](CC)CC)cc-3oc2c1].N.G.P.P.K.A.E.D.E.[O=C([C@H](Cc1ccc(OP(=O)(O)O)cc1)N[*:1])[*:2]].V.N.E.P.L.Y.L.D}$$$$V2.0) | 450 nM | 7840 nM | 2290 nM | 2390 nM | 1180 nM | 1720 nM | 30900 nM | 1530 nM | 410 nM | 610 nM | 10060 nM |  |  |
| CC[C@H](C)[C@H](NC(=O)[C@H](CC(N)=O)NC(=O)[C@H](CC(N)=O)NC(=O)[C@H](CCCCN)NC(=O)[C@H](CC(C)C)NC(=O)[C@H](Cc1ccc(OP(=O)(O)O)cc1)NC(=O)[C@H](CCC(=O)O)NC(=O)[C@H](C)NC(=O)[C@H](CCCCN)NC(=O)CNC(=O)[C@H](CC(C)C)NC(=O)[C@@H](NC(=O)[C@H](CC(N)=O)NC(=O)[C@H](C)NC(=O)[C@@H](N)Cc1ccccc1)[C@@H](C)O)C(=O)N[C@@H](CC(C)C)C(=O)N[C@@H](CO)C(=O)N[C@@H](CC(=O)O)C(=O)O [ErbB4 pY1221 (18-mer)] (HELM PEPTIDE1{F.A.N.T.L.G.K.A.E.[O=C([C@H](Cc1ccc(OP(=O)(O)O)cc1)N[*:1])[*:2]].L.K.N.N.I.L.S.D}$$$$V2.0) | 580 nM |  | 1150 nM | 1160 nM |  |  | 770 nM |  |  | 1250 nM | 210 nM | 540 nM | 1380 nM |
